Results: paper PMC9998502, “Functional selectivity of EM-2 analogs at the mu-opioid receptor” (Frontiers in Pharmacology, 2023)
Read-outs that look alike come from different tables or passages of the source. Marks after values point to notes of the source that are not given here. Non-standard residues stand in square brackets, D forms with d. Residues, ends and D or L forms follow the SMILES beside them. Dmt = Cc1cc(O)cc(C)c1C[C@H](N)C(=O)O; d(β3hA) = C[C@@H](N)CC(=O)O

Key:
[1] = Enzymatic degradation in rat brain homogenate; format: in vitro ADME; conditions: for 100 x k, rate constant of degradation: up to 60 min; for half-life at 0.25 mM: ln2/k, read-out: t1/2, degradation half-life
Method: Enzymatic degradation of EM-2 and the analogs was performed measuring their hydrolysis rates in the presence of rat brain homogenate. The homogenate was prepared prior to the experiment. Briefly, rat brains were homogenized in 20 volumes of Tris–HCl (50 mM, pH 7.4) using a Polytron and the obtained aliquots were stored at −80°C. In the experiment, aliquotes of brain homogenate (100 μL, 10 mg protein/mL) were incubated with 100 µL of a peptide (0.5 mM) over 0, 7.5; 15, 22.5; 30, and 60 min at 37°C, in a final volume of 200 µL. After the incubation the degradation reaction was stopped by placing the tube on ice and acidifying the content with 20 µL of HCl (1 M). The aliquots were centrifuged at 20,000 g for 10 min at 4°C. The supernatants were collected and filtered using Millex-GV syringe filters (Millipore). Then the analysis by HPLC on a Vydac C18 column (5 μm, 4.6 × 250 mm), using the solvent system of 0.1% TFA in water (A) and 80% acetonitrile in water containing 0.1% TFA (B) and a linear gradient of 0%–100% B over 25 min, was performed. Three independent experiments for each assay were carried out in duplicate. The rate constants of degradation (k) were obtained by the least square linear regression analysis of logarithmic peak areas [ln (A/AD)], where A—amount of remained peptide, AD—initial amount of peptide versus time. Degradation half-lives (t1/2) were calculated from the rate constants as ln2/k.

[2] = n-Octanol/water partition coefficient (log P); format: physicochemical; conditions: n-octanol / 0.05 M HEPES buffer in 0.1 M NaCl, pH 7.4
Method: Determination of log P was performed according to the method described by ([Liu et al., 2006]). Peptides were dissolved in 0.05 M HEPES buffer in 0.1 M NaCl, pH 7.4, then an equal volume of n-octanol was added and mixtures were vortexed for 2 min. Samples were centrifuged at 4,000 rpm for 1 min. After separation, aqueous and octanol phases were used to quantify peptide content by RP-HPLC.
Octanol phase was lyophilized and reconstituted in 80% acetonitrile in water containing 0.1% TFA before RP-HPLC. All n-octanol/buffer distribution studies were performed in triplicate.

[3] = biological target: T1, human recombinant kappa opioid receptor (Homo sapiens, UniProt P41145); assay: Radioligand binding, [3H]U-69593 displacement, CHO cell membranes
T1 construct: purchased; host or cells: CHO cells (membranes)
T1 sequence (P41145 whole entry): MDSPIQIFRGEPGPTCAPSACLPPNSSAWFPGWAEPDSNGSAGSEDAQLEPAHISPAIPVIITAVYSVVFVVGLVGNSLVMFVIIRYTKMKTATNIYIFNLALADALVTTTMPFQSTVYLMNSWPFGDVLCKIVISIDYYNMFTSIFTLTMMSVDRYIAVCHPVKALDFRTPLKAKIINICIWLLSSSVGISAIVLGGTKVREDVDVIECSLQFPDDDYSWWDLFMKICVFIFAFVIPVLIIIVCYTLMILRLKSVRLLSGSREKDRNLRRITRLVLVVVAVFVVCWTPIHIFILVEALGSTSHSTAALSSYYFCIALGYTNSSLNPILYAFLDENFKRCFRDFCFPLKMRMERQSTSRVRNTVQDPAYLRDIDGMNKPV

human mu receptor = biological target: T2, human mu receptor (Homo sapiens, UniProt P35372); assay: Calcium mobilization assay, CHO mu cells expressing Gαqi5; format: cell-based; conditions: for mu α±SEM: intrinsic activity, Emax ratio to standard agonist EM-2
T2 construct: expressed in transfected cells; host or cells: CHO cells stably co-expressing Gαqi5
T2 sequence (P35372 whole entry): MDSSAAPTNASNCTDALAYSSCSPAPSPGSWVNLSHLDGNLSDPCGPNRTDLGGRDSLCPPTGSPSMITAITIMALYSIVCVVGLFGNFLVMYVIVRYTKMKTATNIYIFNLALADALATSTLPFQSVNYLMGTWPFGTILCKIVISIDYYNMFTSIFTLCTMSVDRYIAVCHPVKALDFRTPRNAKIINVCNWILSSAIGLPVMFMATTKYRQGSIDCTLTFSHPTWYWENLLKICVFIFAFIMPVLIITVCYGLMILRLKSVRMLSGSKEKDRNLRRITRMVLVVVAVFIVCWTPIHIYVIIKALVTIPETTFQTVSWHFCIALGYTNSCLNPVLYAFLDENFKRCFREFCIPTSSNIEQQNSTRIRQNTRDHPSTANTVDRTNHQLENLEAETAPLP

human kappa receptor = biological target: T3, human kappa receptor (Homo sapiens, UniProt P41145); assay: Calcium mobilization assay, CHO kappa cells expressing Gαqi5; format: cell-based; conditions: inactive = inactive up to 10 µM; for Kappa pEC50 (CL95%): calcium mobilization; for Kappa α± SEM: intrinsic activity, Emax ratio to standard agonist dynorphin A
T3 construct: expressed in transfected cells; host or cells: CHO cells stably co-expressing Gαqi5
T3 sequence (P41145 whole entry): as the sequence (P41145 whole entry) above

delta-opioid receptor [4] = biological target: T4, delta-opioid receptor (Homo sapiens, UniProt P41143); assay: Radioligand binding, [3H]deltorphin-2 displacement, CHO cell membranes; design: purchased; host or cells: CHO cells (membranes)
T4 sequence (P41143 whole entry): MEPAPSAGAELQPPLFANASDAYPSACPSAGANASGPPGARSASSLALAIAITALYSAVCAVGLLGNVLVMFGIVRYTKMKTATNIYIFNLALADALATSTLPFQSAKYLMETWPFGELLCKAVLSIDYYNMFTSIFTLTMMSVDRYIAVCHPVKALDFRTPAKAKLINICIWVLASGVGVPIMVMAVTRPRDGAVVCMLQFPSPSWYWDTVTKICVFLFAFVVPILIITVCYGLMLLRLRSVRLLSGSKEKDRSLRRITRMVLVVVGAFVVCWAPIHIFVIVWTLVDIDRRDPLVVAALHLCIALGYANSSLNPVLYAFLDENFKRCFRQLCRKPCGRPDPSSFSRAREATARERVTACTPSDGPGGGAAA

mu receptor = assay: Bias factor, mu-G protein vs mu-β-arrestin 2 (BRET), EM-2 as standard ligand; conditions: log10 units, towards G protein
delta-opioid receptor [5] = biological target: T4, delta-opioid receptor; assay: Calcium mobilization assay, CHO delta cells expressing GαqG66Di5; format: cell-based; design: expressed in transfected cells; host or cells: CHO cells co-expressing GαqG66Di5; conditions: inactive = inactive up to 10 µM; for Delta pEC50 (CL95%): calcium mobilization; for Delta α± SEM: intrinsic activity, Emax ratio to standard agonist DPDPE
[6] = biological target: mu receptor-G protein interaction (Homo sapiens, UniProt P35372); assay: BRET mu-G protein interaction assay (membranes of SH-SY5Y cells, mu-RLuc/Gβ1-RGFP)
mu receptor-G protein interaction, sequence (P62871 whole entry): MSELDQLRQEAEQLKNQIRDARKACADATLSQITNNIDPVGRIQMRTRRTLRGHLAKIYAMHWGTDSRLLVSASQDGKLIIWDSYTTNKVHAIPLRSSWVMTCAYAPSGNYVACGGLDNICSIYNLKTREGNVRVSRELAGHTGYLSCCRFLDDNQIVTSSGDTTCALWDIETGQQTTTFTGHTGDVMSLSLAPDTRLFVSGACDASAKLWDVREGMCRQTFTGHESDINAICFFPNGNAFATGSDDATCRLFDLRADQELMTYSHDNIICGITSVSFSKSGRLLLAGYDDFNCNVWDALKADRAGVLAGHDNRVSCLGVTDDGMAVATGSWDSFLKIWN
mu receptor-G protein interaction, sequence (P35372 whole entry): as the sequence (P35372 whole entry) above
Method: (§1) SH-SY5Y cells stably co-expressing the fusoproteins mu-RLuc and Gβ1-RGFP or mu-RLuc and β-arrestin 2-RGFP were grown in DMEM/F12 (1:1) medium supplemented with 10% FBS, 2 mM L-Glutamine, 100 μg/mL hygromycin B, 400 μg/mL G418, 100 units/mL penicillin G, 100 μg/mL streptomycin and 1 μg/mL Fungizone at 37°C in a humidified atmosphere with of 5% CO2.
Total protein in membrane preparations was determined by colorimetric method with the Quantum Protein-BCA kit (EuroClone, Pero (MI), IT) and measured using the multiplate reader Victor Nivo (PerkinElmer, Walthman, MA, United States). White opaque 96 wells microplates (PerkinElmer, Walthman, MA, United States) were used to carry out BRET assays. Cell membranes were thawed and resuspended in PBS supplemented with 0.02% BSA before the assay, and an amount of 5 μg of total protein was dispensed in each 96 well. All experiments were carried out at room temperature.
(§2) In agonism experiments, ligands were added and incubated for 5 min before microplate reading. […] BRET ratios were computed as follow: RGFPCPS/RLucCPSligand−RGFPCPS/RLucCPSvehicle
(§3) Concentration-response curves to agonists were fitted to the four-parameter logistic non-linear regression model as follows: Effect=Basal+Emax−Basal/1+10^LogEC50−Logligand×HillSlope

[7] = biological target: mu receptor-β-arrestin 2 interaction (Homo sapiens, UniProt P35372); assay: BRET mu-β-arrestin 2 interaction assay (living SH-SY5Y cells, mu-RLuc/β-arrestin 2-RGFP), agonism
mu receptor-β-arrestin 2 interaction, sequence (P35372 whole entry): as above
Method: as §1
Mu- β-arrestin 2 interaction—Living SH-SY5Y cells expressing mu-RLuc and β-arrestin 2-RGFP were seeded at a cell density of 100,000 cells/well 24 h prior to the test. On the day of the experiment, medium was discarded, and cells were washed with PBS supplemented with 0.5 mM MgCl2, 0.9 mM CaCl2. Cells were subsequently incubated with 2 μM Prolume Purple Coelenterazine (NanoLight Technology, White Mountain, AZ; United States) for 10 min before bioluminescence reading.
as §2, §3

[8] = biological target: T5, human recombinant mu opioid receptor (Homo sapiens, UniProt P35372); assay: Radioligand binding, [3H]DAMGO displacement, CHO cell membranes
T5 construct: purchased; host or cells: CHO cells (membranes)
T5 sequence (P35372 whole entry): as above

[9] = rat, pH 7.4, rat brain homogenate, 37°C
[10] = inactive = inactive up to 10 µM
[11] = [3H]DAMGO, n ≥ 3, read-out: Ki ± SEM, mu
[12] = calcium mobilization, inactive = inactive up to 10 µM, read-out: mu pEC50 (CL95%) (converted)
[13] = [3H]deltorphin-2, n ≥ 3, read-out: Ki ± SEM, Delta

| Structure (SMILES) | 100 x k, rate constant of degradation ([1]; 37°C) [per min] | half-life at 0.25 mM [1, 9] [min] | logD [2] | Ki [3] [nM] | EC50 (human mu receptor) [nM] | mu α±SEM (human mu receptor; [10]) | Kappa pEC50 (CL95%) (human kappa receptor) | Kappa α± SEM (human kappa receptor) | Ki (delta-opioid receptor [4]) [nM] | Bias factor (CL95%) (mu receptor) | Delta pEC50 (CL95%) (delta-opioid receptor [5]) | Delta α± SEM (delta-opioid receptor [5]) | EC50 [6] [nM] | EC50 [7] [nM] | Ki [8] [nM] | also measured |
| --- | --- | --- | --- | --- | --- | --- | --- | --- | --- | --- | --- | --- | --- | --- | --- | --- |
| NC(=O)[C@H](Cc1ccccc1)NC(=O)C[C@@H](Cc1cccc2ccccc12)NC(=O)[C@@H]1CCCN1C(=O)[C@@H](N)Cc1ccc(O)cc1 [analog 12, Tyr-Pro-(R)-β ^ 3 -1-Nal-Phe-NH2] | 1.28 ± 0.05 | 53.9 ± 4.1 | 3.01 | > 1000 | 47.9 | 0.97 ± 0.02 | inactive | inactive | > 1000 | 0.23 (0.06–0.41) | inactive | inactive | 77.6 | 145 |  |  |
| NC(=O)[C@H](Cc1ccccc1)NC(=O)[C@H](Cc1ccccc1)NC(=O)[C@@H]1CCCN(C(=O)[C@@H](N)Cc2ccc(O)cc2)C1 [analog 4, Tyr-(R)-Nip-Phe-Phe-NH2] | 1.05 ± 0.08 |  | 1.68 | > 1000 |  | 0.99 ± 0.04 | inactive | inactive |  | −0.02 (−0.04-0.00) | inactive | inactive | 11.2 | 43.7 |  | half-life at 0.25 mM ([1]; pH 7.4, 37°C): 65.7 ± 2.4 min; Ki [8, 11]: 0.85 ± 0.17 nM; EC50 (human mu receptor; [12]): 2.69 nM; Ki (delta-opioid receptor [4]; [13]): > 1000 nM; β-Arrestin 2 Emax±sem [7]: 1.30 ± 0.03 |
| Cc1cc(O)cc(C)c1C[C@H](N)C(=O)N1CCC[C@@H](C(=O)N[C@@H](Cc2ccccc2)C(=O)N[C@@H](Cc2ccccc2)C(N)=O)C1 [analog 5, Dmt-(R)-Nip-Phe-Phe-NH2] | 0.77 ± 0.06 | 89.6 ± 3 | 1.8 | 567 ± 39 | 0.316 | 1.00 ± 0.02 | inactive | inactive | 589 ± 28 | −0.08 (−0.25-0.10) | inactive | inactive | 1.1 | 3.63 | 0.14 ± 0.06 |  |
| C[C@H](CC(=O)N[C@@H](Cc1ccccc1)C(=O)N[C@@H](Cc1ccccc1)C(N)=O)NC(=O)[C@@H](N)Cc1ccc(O)cc1 [analog 8, Tyr-(R)-β ^ 3 -Ala-Phe-Phe-NH2] (H-Y[d(β3hA)]FF-NH2; N-terminus assumed) | 0.82 ± 0.04 | 84.2 ± 3.9 | 1.71 | > 1000 | 1 | 0.99 ± 0.02 | inactive | inactive | > 1000 | 0.76 (0.55–0.98) | inactive | inactive | 7.41 | 77.6 | 0.44 ± 0.1 |  |
| Cc1cc(O)cc(C)c1C[C@H](N)C(=O)N[C@H](C)CC(=O)N[C@@H](Cc1ccccc1)C(=O)N[C@@H](Cc1ccccc1)C(N)=O [analog 9, Dmt-(R)-β ^ 3 -Ala-Phe-Phe-NH2] (H-[Dmt][d(β3hA)]FF-NH2; N-terminus assumed) | 1.90 ± 0.04 | 36.3 ± 2.8 | 2.09 | 890 ± 42 | 0.457 | 1.00 ± 0.05 | inactive | inactive | 286 ± 18 | 0.27 (0.16–0.38) | inactive | inactive | 0.724 | 2.14 | 0.14 ± 0.07 |  |
| C[C@H](CNC(=O)[C@@H](N)Cc1ccc(O)cc1)C(=O)N[C@@H](Cc1ccccc1)C(=O)N[C@@H](Cc1ccccc1)C(N)=O [analog 6, Tyr-(R)-β ^ 2 -Ala-Phe-Phe-NH2] | 1.03 ± 0.07 |  | 1.75 | > 1000 |  | 0.88 ± 0.06 | inactive | inactive |  | 1.35 (1.15–1.55) | inactive | inactive | 417 | 14100 |  | half-life at 0.25 mM ([1]; pH 7.4, 37°C): 66.9 ± 2.7 min; Ki [8, 11]: 46.8 ± 5.18 nM; EC50 (human mu receptor; [12]): 30.2 nM; Ki (delta-opioid receptor [4]; [13]): > 1000 nM; β-Arrestin 2 Emax±sem [7]: ∼1 ^a |
| Cc1cc(O)cc(C)c1C[C@H](N)C(=O)N1CCC[C@H]1C(=O)N[C@@H](Cc1ccccc1)C(=O)N[C@@H](Cc1ccccc1)C(N)=O [analog 1, Dmt-Pro-Phe-Phe-NH2] | 3.31 ± 0.12 | 20.8 ± 1.2 | 2.16 |  | 2.51 | 0.85 ± 0.02 |  |  | 560 ± 41 | 0.48 (0.34–0.62) | inactive | inactive | 3.09 | 11.7 | 0.54 ± 0.03 | fold higher potency than EM-2 (human mu receptor; calcium mobilization, mu): 3 fold |
| Cc1cc(O)cc(C)c1C[C@H](N)C(=O)N1CCC[C@H]1C(=O)N[C@@H](CC(=O)N[C@@H](Cc1ccccc1)C(N)=O)Cc1cccc2ccccc12 [analog 13, Dmt-Pro-(R)-β ^ 3 -1-Nal-Phe-NH2] | 1.69 ± 0.07 | 40.8 ± 4 | 3.16 |  | 3.8 | 0.77 ± 0.02 | inactive | inactive |  | 0.27 (0.20–0.34) | inactive | inactive | 3.63 | 4.37 |  |  |
| Cc1cc(O)cc(C)c1C[C@H](N)C(=O)NC[C@@H](C)C(=O)N[C@@H](Cc1ccccc1)C(=O)N[C@@H](Cc1ccccc1)C(N)=O [analog 7, Dmt-(R)-β ^ 2 -Ala-Phe-Phe-NH2] | 0.51 ± 0.03 | 135 ± 4.3 | 2.33 | 807 ± 46 | 0.692 | 0.95 ± 0.03 | inactive | inactive | 571 ± 55 | 0.67 (0.49–0.84) | inactive | inactive | 4.57 | 19.1 | 0.31 ± 0.09 |  |
